This assay deals with Induced myeloid leukemia cell differentiation protein Mcl-1 (Homo sapiens) (UniProt Q07820). Put plainly: Mcl-1 Noxa peptide disruption concentration-response – biochemical, TR-FRET, dose response (AID 1417). Particulars: Mcl-1/Noxa peptide interaction, cell-free TR-FRET (terbium/rhodamine), 2 h; measured here: absolute IC50. A general note: Time-resolved FRET reads energy transfer from a long-lived donor to a nearby acceptor.

The values that follow come from PubChem BioAssay AID1417 (Emory University Molecular Libraries Screening Center, 2008).

Chain of Induced myeloid leukemia cell differentiation protein Mcl-1 (Homo sapiens) (Q07820 whole entry, looked up): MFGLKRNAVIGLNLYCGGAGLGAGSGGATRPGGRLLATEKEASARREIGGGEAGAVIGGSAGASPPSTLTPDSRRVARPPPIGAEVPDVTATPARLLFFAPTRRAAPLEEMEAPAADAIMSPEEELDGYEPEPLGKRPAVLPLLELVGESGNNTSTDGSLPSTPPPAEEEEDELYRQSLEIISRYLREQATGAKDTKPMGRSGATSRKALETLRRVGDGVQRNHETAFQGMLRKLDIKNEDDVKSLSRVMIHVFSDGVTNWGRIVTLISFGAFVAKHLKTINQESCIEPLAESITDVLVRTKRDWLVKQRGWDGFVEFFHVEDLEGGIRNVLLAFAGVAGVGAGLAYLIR

In general, IC50 refers to the midpoint of a concentration-inhibition curve. Higher therefore signals a need for much substance. The compound `Cc1ccc(C(=O)COC(=O)CNC(=O)c2ccc(N3C(=O)c4ccccc4C3=O)cc2)cc1C` yielded an IC50 above 54 µM.
Then `O=c1[nH]c(=S)[nH]c(O)c1N=Nc1ccc(-c2ccccc2)cc1[N+](=O)[O-]`, with 2.99 µM; and `O=c1c2c3nc4ccccc4nc3n(Cc3ccccc3)c2ncn1Cc1ccco1`, with above 54 µM; and `O=C(N/N=C/c1ccc(-c2ccc(S(=O)(=O)Nc3ncccn3)cc2)o1)c1cc2ccccc2cc1O`, with 1.43 µM.
Then `COc1ccc(NC(=O)c2cc(-c3ccco3)nc3ccccc23)cc1S(=O)(=O)N1CCOCC1`, with below 0.4 µM; and `CCS(=O)(=O)N1CCN(C(C)CCc2ccccc2)CC1` (configuration not stated), with above 54 µM.
Then `O=C(O)c1ccc(N/N=C/c2ccc(-c3ccc(Cl)cc3Cl)o2)cc1`, with 4.36 µM.
Regarding `Cc1ccc(S(=O)(=O)Nc2ccc(N(C)C)cc2)cc1`, the IC50 is above 54 µM.
`O=C(O)c1ccccc1NS(=O)(=O)c1ccc(NNC(=S)Nc2ccc(OC(F)F)cc2)c([N+](=O)[O-])c1` gave an IC50 below 0.4 µM.
The compound `COc1cnn(-c2ccc(Br)cc2)c(=O)c1SCc1ccccc1` came in with an IC50 above 54 µM.
Then `CC(/C=N/NC(=O)c1cc(-c2ccc3ccccc3c2)n[nH]1)=C\c1ccco1`, with 4.91 µM; and `COc1cc(/C=C2\SC(=O)NC2=O)ccc1Oc1ccc([N+](=O)[O-])cc1[N+](=O)[O-]`, with 3.29 µM; and `Cc1sc(NC(=O)c2sc3nc4c(C)cccc4cc3c2N)c(C#N)c1C`, with below 0.4 µM.
Then `CCOC(=O)c1c(NC(C)=O)sc2c(O)c(Br)cc(Br)c12`, with 8.58 µM; and `Cc1cccc(/C=C/C(=O)c2ccc(NC3=NCCCS3)cc2)c1`, with 4.9 µM; and `Cc1cc(=O)oc2cc(OCc3ccc(C(=O)OCC(=O)Nc4ccc(N(C)C)cc4)cc3)ccc12`, with below 0.4 µM.
`O=C1c2ccc([N+](=O)[O-])cc2NC(c2ccco2)N1/N=C/c1ccco1` (configuration not stated) gave an IC50 above 54 µM.
In turn, `CCCCCc1nc2c(=O)[nH]c3ccccc3c2o1` had an IC50 above 54 µM.
`Nc1cc(C(=O)O)c(N)c2c1C(=O)c1ccccc1C2=O`: the IC50 is below 0.4 µM.
Then `C1=CC2c3ccccc3NC(c3ccncc3)C2C1` (configuration not stated), with 1.81 µM; and `CC(C)CC1NC(=O)N(CC(=O)c2ccc3c(c2)OCCO3)C1=O` (configuration not stated), with above 54 µM; and `O=C(Nc1ccc2c(c1)nc1n2CCN(C2CCCCC2)C1)c1ccco1`, with 9.74 µM.
Then `CCN(CC)c1ccc(NC(=O)c2ccc3c(c2)c(C)c(C)n3C)cc1`, with above 54 µM; and `CN(C)c1ccc(NC(=O)c2ccc(COc3cccc(Cl)c3)o2)cc1`, with below 0.4 µM; and `CCN(c1ccc(NC(=O)COC(=O)c2cc3ccccc3oc2=O)cc1)C(C)C`, with above 54 µM.
Turning to `O=C(NCc1ccco1)c1c2c(nc3ccccc13)CCC2`, the half-inhibitory concentration (IC50) is 3.96 µM. This lies in the single-digit micromolar range.
Then `CS(=O)(=O)C1=NSC2=NC(=O)/C(=C\c3cccn3-c3ccccc3Cl)C(=N)N21`, with 5.59 µM; and `C=CCc1c(C)nc(SCCC)[nH]c1=O`, with above 54 µM; and `CN1CCN(c2ccc([N+](=O)[O-])cc2/C=N/NC(=O)c2ccc(F)cc2)CC1`, with 4.75 µM.
Then `N#Cc1c2nc3ccccc3nc2n2cc(NC(=O)c3ccc(F)cc3)ccc12`, with below 0.4 µM; and `Cc1ccc(-c2nnc3ccc(SC(C)C(=O)O)nn23)cc1` (configuration not stated), with 4.71 µM.
Then `Nc1c(C(=O)NC2CC2)sc2nc3c(c(-c4ccco4)c12)CC/C3=C/c1ccco1`, with below 0.4 µM; and `Nc1c(C(=O)NCc2ccco2)sc2nc3c(cc12)C(=O)CCC3`, with 2.34 µM.
In the case of `Oc1c(Cl)cc(Cl)c(Cl)c1Cc1c(O)c(Cl)cc(Cl)c1Cl`, the IC50 was below 0.4 µM.
Then `COc1ccc(/C=C2/SC(=O)N(CCC(=O)Nc3ccc(S(=O)(=O)Nc4nccs4)cc3)C2=O)cc1`, with 3.81 µM; and `Oc1ccc(-c2csc(Nc3ncccn3)n2)cc1O`, with below 0.4 µM.
In turn, `CCc1cc(C(=O)N=Nc2c(O)[nH]c3ccc([N+](=O)[O-])cc23)c2ccccc2n1` displayed a 50% inhibitory concentration (IC50) of 5.99 µM.
Then `CCOc1cc(/C=N/Nc2nc(-c3cccs3)c(NC(C)=O)s2)ccc1O`, with below 0.4 µM.
Then `O=C(Cn1nc(C(=O)O)c2ccccc2c1=O)Nc1ccc2c(c1)C(=O)c1ccccc1C2=O`, with 4.62 µM; and `COc1ccc(OC)c(/C=N/c2oc(-c3ccco3)c(-c3ccco3)c2C#N)c1`, with 9.72 µM; and `Cc1c(N=Nc2c(-c3ccc([N+](=O)[O-])cc3)[nH]n(C(N)=S)c2=O)cccc1[N+](=O)[O-]`, with below 0.4 µM.
Then `O=C1Nc2ccccc2/C1=N/N=C/c1ccc(-c2ccc([N+](=O)[O-])cc2)o1`, with below 0.4 µM; and `Cc1ccc(S(=O)(=O)C(CCC(=O)N2CCOCC2)S(=O)(=O)c2ccc(C)cc2)cc1`, with above 54 µM.
Compound `Cc1ccc(N2C(=O)NC(=O)/C(=C/c3cnc(-c4ccccc4)nc3)C2=O)cc1C` had a 50% inhibitory concentration (IC50) of 16.3 µM.
Then `CCCc1ccc(/C=C2\C(=O)c3ccccc3C(O)=C2C(=O)OCC)cc1`, with above 54 µM; and `CCOC(=O)C1CCN(c2nc(N)c3c(N)nc(SCC(=O)O)cc3c2C#N)CC1`, with below 0.4 µM; and `CCNC(=O)COC(=O)c1cc(-c2ccco2)nc2ccccc12`, with 1.81 µM.
Then `O=[N+]([O-])c1ccc(O)c(/C=N/Nc2ccc(Cl)nn2)c1`, with 16.7 µM.
Then `O=C1NC(=S)/C(=C\c2ccc(-c3ccccc3Cl)o2)S1`, with 2.13 µM; and `Cc1ccc(NC(=O)Cn2c(O)c(N=NC(=O)c3cc4ccccc4cc3O)c3ccccc32)cc1`, with 2.98 µM; and `O=C(NC1CC1)c1cc(-c2ccco2)nc2ccccc12`, with below 0.4 µM.
The compound `CCCC1=NN2C(=N)/C(=C\c3ccc(SCc4ccco4)o3)C(=O)N=C2S1` showed an IC50 below 0.4 µM.
The compound `O=C(COc1cccnc1[N+](=O)[O-])c1ccc(Cl)s1` gave an IC50 of 2.84 µM.
Then `CCCOc1ccc(Cc2nn3c(=O)/c(=C/c4ccco4)sc3nc2=O)cc1`, with above 54 µM.
Compound `O=C(O)CSc1cc(C(=O)c2ccccc2O)cn2c(=O)c3c(-c4ccccc4)csc3nc12` showed an IC50 of 5.71 µM. In other words, the single-digit micromolar range.
In turn, `COc1ccc(N=C2S/C(=C\c3ccc(OC(C)C(=O)O)c(OC)c3)C(=O)N2CCc2c[nH]c3ccccc23)cc1` (configuration not stated) showed an IC50 of 7.31 µM.
`O=C1C2C3C=CC(C2C(=O)N1c1cccc(O)c1)C1C2C(=O)N(c4cccc(O)c4)C(=O)C2C31` (configuration not stated) showed an IC50 above 54 µM.
`Cc1ccc(S(=O)(=O)/N=C2/C=C(C3C(=O)CC(C)(C)CC3=O)C(=O)c3ccccc32)cc1` displayed an IC50 of 2.87 µM. This lies in the single-digit micromolar range.
Then `Cc1nnc(NC(=O)c2sc3nc(-c4cccs4)cc(C(F)(F)F)c3c2N)s1`, with 1.6 µM.
Then `COc1ccc2nc(-n3c(O)c(C4=c5ccccc5=NC4=O)[nH]c3=S)sc2c1`, with below 0.4 µM; and `CN1CCN(c2ccc(Cl)cc2NC(=O)c2ccc(S(=O)(=O)N3CCCCCC3)cc2)CC1`, with 3.89 µM.
`O=C(O)c1ccc(Nc2nc(-c3cc4ccccc4oc3=O)cs2)cc1O` displayed an IC50 of 5.36 µM.
Consider `CC1=C(C#N)C(=O)N(C2CCS(=O)(=O)C2)C(=O)/C1=C\c1ccc(C)o1` (configuration not stated), for which the IC50 was below 0.4 µM.
In turn, `CCOc1ccc(N=C2NC(=O)S/C2=C\c2ccc(O)cc2)cc1` returned an IC50 of 1.26 µM.
Consider `CNc1sc(C(=O)c2ccccc2F)c(N)c1-c1nc2ccccc2s1`, for which the IC50 came out at 5.67 µM.
Then `O=C1NN(c2ccc(Cl)cc2)C(=O)/C1=C\c1ccc(-c2cccc(C(=O)O)c2)o1`, with 0.894 µM.
Then `CN(C)c1ccc(NC(=O)/C=C/c2c(Cl)cccc2Cl)cc1`, with above 54 µM; and `COc1ccc(N2CCC(CNC(=O)Nc3ccc(Cl)cc3)C2)cc1` (configuration not stated), with 51.7 µM; and `Cc1c(Cl)cnc(NC(=O)COC(=O)c2ccc([N+](=O)[O-])s2)c1Cl`, with 7.01 µM.
`CCN(/N=C/c1ccc(N(C)C)cc1)c1nc2ccccc2[nH]1` showed an IC50 of 2.06 µM. This IC50 lies about 3.4-fold lower than the previous one.
As to `COc1cc(/C=C2\SC(=O)N(Cc3ccc(F)cc3)C2=O)cc([N+](=O)[O-])c1O`, the IC50 came to 7.01 µM.
For `O=C(Nc1ccc(Cl)cc1)N1CCc2[nH]c3ccccc3c2C1`, the IC50 is above 54 µM.
Then `Cc1ccc(NC(=O)CN2C(=O)N/C(=C/c3cc(C)n(-c4ccc(C(=O)O)cc4)c3C)C2=O)cc1`, with 5.14 µM; and `COc1ccc2nc(S(=O)Cc3ncc(C)c(OC)c3C)[nH]c2c1` (configuration not stated), with below 0.4 µM.
Then `CCOC(=O)c1ccc2c(c1)C1C=CCC1C(C(=O)O)N2` (configuration not stated), with below 0.4 µM.
Then `CCN(CC)c1nc2c3c(nc4c(c3c1C#N)CC(=O)N4c1ccc(Cl)cc1)NC(C)=N2`, with 3.19 µM; and `Cc1ccc2nc(N3C(=O)C(O)=C(C(=O)c4cc5ccccc5o4)C3c3cccs3)sc2c1` (configuration not stated), with 1.22 µM; and `Cc1ccc(N=C2NC(=O)S/C2=C\c2ccco2)cc1`, with 8.57 µM.
For the compound `O=C(O)c1ccc(-n2cccc2/C=C2/NC(=O)N(c3ccccc3)C2=O)cc1`, the IC50 stood at 3.33 µM.
Then `Oc1ccc(N2CCN(c3ncnc4sc(-c5ccccc5)cc34)CC2)cc1`, with 1.15 µM.
The compound `CC(=O)N1C(=O)/C(=C2\SC(=S)N(NC(=O)c3ccc(O)cc3)C2=O)c2ccccc21` yielded an IC50 of 1.55 µM.
`COc1ccc2nc(Nc3sc4c(c3C(N)=O)CCCC4)sc2c1` returned an IC50 below 0.4 µM.
Then `Cc1c(O)cc2c(c1O)C(=O)CC(c1ccc(O)cc1)O2` (configuration not stated), with 2.84 µM.
Take `CCN(CC)c1ccc(NC(=O)CCNC(=O)c2ccco2)cc1`: the IC50 is above 54 µM.
Then `COc1ccc(N2CCC(CNC(=O)Nc3cccc(OC)c3)C2)cc1` (configuration not stated), with above 54 µM; and `O=[N+]([O-])c1cc(S(=O)(=O)c2ccc(O)c([N+](=O)[O-])c2)ccc1O`, with 0.846 µM; and `O=C(O)c1ccc(-n2cccc2/C=C2/NC(=O)N(c3cccc(Cl)c3)C2=O)cc1`, with below 0.4 µM.
With `CCOC(=O)CC1=CSC2=NS(=O)(=O)CCN12`, the IC50 was above 54 µM.
For the compound `CN(C)c1ccc(NC(=O)CCCc2ccccc2)cc1`, the IC50 is above 54 µM.
The compound `CCC1(C(=O)OC)CCc2c(cc(OC)c3ccccc23)C1=O` (configuration not stated) showed an IC50 of 48.1 µM.
Then `Cc1cc(C)c2c(c1)C1C=CCC1C(c1ccc(S(=O)(=O)N3CCOCC3)cc1)N2` (configuration not stated), with 2.05 µM.
The compound `Oc1ccc(N2CCN(c3ncnc4sc5c(c34)CCC5)CC2)cc1` had an IC50 of 6.63 µM.
